# Results as given in patent US20230116196A1, “METHOD OF TREATING CNS DISORDERS WITH NEU[…] GABAERGIC COMPOUNDS” (priority 2017, published 2023).
# Key:
# [1] = test system: dentate gyrus granule cells (DGGCs); format: cell-based, mouse; details: protocol as FIG. 3
# Description: Brain slices were prepared from 3- to 5-week-old male C57 mice. Mice were anesthetized with isoflurane, decapitated, and brains were rapidly removed and submerged in ice-cold cutting solution containing (mM): 126 NaCl, 2.5 KCl, 0.5 CaCl2, 2 MgCl2, 26 NaHCO3, 1.25 NaH2PO4, 10 glucose, 1.5 sodium pyruvate, and 3 kynurenic acid. Coronal 310 μm thick slices were cut with the vibratome VT1000S (Leica Microsystems, St Louis, Mo., USA). The slices were then transferred into incubation chamber filled with prewarmed (31-32° C.) oxygenated artificial cerebro-spinal fluid (ACSF) of the following composition (in mM): 126 NaCl, 2.5 KCl, 2 CaCl2, 2 MgCl2, 26 NaHCO3, 1.25 NaH2PO4, 10 glucose, 1.5 sodium pyruvate, 1 glutamine, 3 kynurenic acid and 0.005 GABA bubbled with 95% O2-5% CO2. Slices were allowed to recover at 32° C. for at least 1 hr before recording. Exogenous GABA was added in an attempt to standardize ambient GABA in the slice and provide an agonist source for newly inserted extrasynaptic GABAARs.
# After recovery, a single slice was transferred to a submerged, dual perfusion recording chamber (Warner Instruments, Hamden, Conn., USA) on the stage of an upright microscope (Nikon FN-1) with a 40× water immersion objective equipped with DIC/IR optics. Slices were maintained at 32° C. and gravity-superfused with ACSF solution throughout experimentation and perfused at rate of 2 ml/min with oxygenated (O2/CO2 95/5%) ACSF.
# Whole-cell currents were recorded from the dentate gyrus granule cells (DGGCs) in 310-μm-thick coronal hippocampal slices. Patch pipettes (5-7MΩ) were pulled from borosilicate glass (World Precision Instruments) and filled with intracellular solution of the composition (in mM) as follows: 140 CsCl, 1 MgCl2, 0.1 EGTA, 10 HEPES, 2 Mg-ATP, 4 NaCl and 0.3 Na-GTP (pH=7.2 with CsOH). A 5 min period for stabilization after obtaining the whole-cell recording conformation (holding potential of −60 mV) was allowed before currents were recorded using an Axopatch 200B amplifier (Molecular Devices), low-pass filtered at 2 kHz, digitized at 20 kHz (Digidata 1440A; Molecular Devices), and stored for offline analysis.
# For tonic current measurements, an all-points histogram was plotted for a 10 s period before and during 100 μM picrotoxin application, once the response reached a plateau level. Recordings with unstable baselines were discarded. Fitting the histogram with a Gaussian distribution gave the mean baseline current amplitude and the difference between the amplitudes before and during picrotoxin was considered to be the tonic current. The negative section of the all-points histogram which corresponds to the inward IPSCs was not fitted with a Gaussian distribution (Kretschmannova et al., 2013; Nusser and Mody, 2002). Series resistance and whole-cell capacitance were continually monitored and compensated throughout the course of the experiment. Recordings were eliminated from data analysis if series resistance increased by >20%. Spontaneous inhibitory post-synaptic currents (sIPSCs) were analyzed using the mini-analysis software (version 5.6.4; Synaptosoft, Decatur, Ga.). Minimum threshold detection was set to 3 times the value of baseline noise signal. To assess sIPSC kinetics, the recording trace was visually inspected and only events with a stable baseline, sharp rising phase, and single peak were used to negate artifacts due to event summation. Only recordings with a minimum of 200 events fitting these criteria were analyzed. sIPSCs amplitude, and frequency from each experimental condition was pooled and expressed as mean±SEM. To measure sIPSC decay, 100 consecutive events were averaged and the decay was fitted to a double exponential and the weighted decay constant (tw) was determined. Statistical analysis was performed by using Student t-test (paired and unpaired where appropriate), where p<0.05 is considered significant.
# [2] = test system: GABAA receptor β3 subunit S408/9; experiment: Immunoblot of β3 S408/9 phosphorylation in hippocampal slices; format: cell-based, mouse; details: 100 nM
# Description: Asterisks represent a significant difference from control (ALLO: p<0.01, Student's t-test, n=10 slices, from 10 mice; SGE-516: p<0.05, Student's t-test, n=4 slices, from 4 mice). […] Asterisks represent a significant difference from control (ALLO: p<0.05, Student's t-test, n=8 slices; SGE-516: p<0.05, Student's t-test, n=4 slices).
# Hippocampi were dissected out of acute slices from 8 to 12 week old C57/Bl6 mice and lysed with […] including: 20 mM Tris-HCl, 150 mM NaCl, 5 mM EDTA, 10 mM NaF, 2 mM Na3VO4, 10 mM pyrophosphate, 0.1% SDS and 1% Triton after drug treatment. The β3 subunit was isolated using immunoprecipitation with β3 antibodies, after correction for protein content and the specific activity of labeling. Results were attained by SDS/PAGE followed by autoradiography (Abramian et al., 2010). For biotinylation experiments hippocampi were dissected out of acute slices from 8 to 12 week old C57/Bl6 mice and incubated in artificial cerebrospinal fluid (ACSF) described above at 30° C. for 1 h for recovery before experimentation. Slices were then placed on ice and incubated for 30 min with 1 mg/mL NHS-SS-biotin (Pierce). Excess biotin was removed by a 50 mM glycine quenching buffer, followed by washing of slices three times in ice-cold ACSF. The tissue was snap frozen on dry ice for 5 min, thawed at 4° C. and lysed. The lysates were solubilized with 2% Triton at 4° C. on a rotating wheel for 1 h. The insoluble material was removed by centrifugation, and 350-500 μg of protein lysate were incubated with NeutrAvidin beads (Pierce) for 18-24 h at 4° C. Bound material was eluted with sample buffer and subjected to SDS/PAGE and then immunoblotted with the indicated antibodies. Blots were then quantified using the CCD-based ChemiDoc XRS ? system. Antibodies against the β3 subunit and the phospho-β3 antibody were generated and verified by the laboratory of S.J.M. (Vien et al., 2015).
# Treatment of hippocampal slices with SGE-516 increased the phosphorylation of S408/9 measured using pS408/9 antibodies. To produce antibodies specific for phosphorylated S443, rabbits were injected with a synthetic peptide corresponding to residues […] of the murine α4 subunit in which the serine residue corresponding to S443 was chemically phosphorylated; […]. Hippocampal slices were treated with vehicle (Con), or SGE-516 for 20 min. Slices were immunoblotted with pS408/9, β3, or actin antibodies. The ratio of pS408/9/β3 immunoreactivity was then normalized to control slices (100%=the line).
# Hippocampal slices were treated with 100 nM ALLO or P4 (progesterone), and S408/9 phosphorylation was then determined as detailed above, n=4 slices (FIG. 18D). Hippocampal slices were treated with 100 nM ORG (FIG. 18E). S408/9 phosphorylation was examined using immunoblotting. […]
# GT1-7 cells [3] = experiment: Patch-clamp of GABA-induced currents (IGABA) in GT1-7 cells; format: cell-based; details: 100 nM in electrolyte, GABA EC20, 20 min time course
# Description: Patch-clamp recordings were made from GT1-7 cells. The magnitude of the GABA-induced currents (IGABA) at EC20 agonists concentration were then measured, in the presence of control electrolyte or that supplemented with 100 nM ALLO, or 100 nM ORG OD 02-0 over a time course of 20 min.
# [4] = test system: GABAARs composed of α4β3 subunits; experiment: Acute modulation of IGABA in HEK-293 expressing GABAARs; format: cell-based; details: 100 mM (so in the source), rapidly applied with GABA
# GT1-7 cells [5] = experiment: Immunoblot of β3 S408/9 phosphorylation in GT1-7 cells; format: cell-based; details: 100 nM, 15 min
# Description: GT1-7 cells that co-express mPRα and GABAARs were used to measure the level of phosphorylation at S408/9 position of β3 subunit. […] Expression of mPRα was confirmed using western blotting.
# GT1-7 cells were treated with 100 nM AllO or P4 for 15 min and immunoblotted with antibodies specifically recognizing β3, actin, and […] β3 subunit (pS408/9). The ratio of pS408/9 β3 subunit immunoreactivity were then normalized to levels seen in vehicle treated to controls, n=6.
# [6] = test system: dentate gyrus granule cells (DGGCs); details: Abramian et al., 2010, 2014; cited from earlier work
# α4β3δ GABAA receptors = target: T1, α4β3δ GABAA receptors (Homo sapiens, UniProt O14764+P28472+P48169); experiment: Whole-cell patch clamp: potentiation of GABA EC20 currents at recombinant α4β3δ GABAA receptors; format: cell-based; details: data not shown
# T1 construct: expressed in transfected cells; host or cells: CHO cells, transiently transfected (Lipofectamine)
# T1 sequence (P48169 36-554): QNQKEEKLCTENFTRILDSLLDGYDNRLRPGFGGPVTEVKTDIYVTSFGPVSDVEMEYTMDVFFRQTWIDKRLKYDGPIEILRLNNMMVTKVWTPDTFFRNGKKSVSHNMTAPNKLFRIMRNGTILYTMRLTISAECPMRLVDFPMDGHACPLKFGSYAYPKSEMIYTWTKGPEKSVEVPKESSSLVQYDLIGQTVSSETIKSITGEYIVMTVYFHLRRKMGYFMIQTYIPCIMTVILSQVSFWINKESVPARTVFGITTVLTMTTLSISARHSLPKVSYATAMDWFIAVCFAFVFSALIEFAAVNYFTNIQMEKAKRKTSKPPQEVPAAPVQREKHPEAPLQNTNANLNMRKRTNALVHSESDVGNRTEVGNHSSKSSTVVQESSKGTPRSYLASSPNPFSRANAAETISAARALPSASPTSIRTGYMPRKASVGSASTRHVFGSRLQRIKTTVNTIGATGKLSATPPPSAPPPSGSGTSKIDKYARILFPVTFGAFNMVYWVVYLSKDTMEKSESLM
# T1 sequence (P28472 26-473): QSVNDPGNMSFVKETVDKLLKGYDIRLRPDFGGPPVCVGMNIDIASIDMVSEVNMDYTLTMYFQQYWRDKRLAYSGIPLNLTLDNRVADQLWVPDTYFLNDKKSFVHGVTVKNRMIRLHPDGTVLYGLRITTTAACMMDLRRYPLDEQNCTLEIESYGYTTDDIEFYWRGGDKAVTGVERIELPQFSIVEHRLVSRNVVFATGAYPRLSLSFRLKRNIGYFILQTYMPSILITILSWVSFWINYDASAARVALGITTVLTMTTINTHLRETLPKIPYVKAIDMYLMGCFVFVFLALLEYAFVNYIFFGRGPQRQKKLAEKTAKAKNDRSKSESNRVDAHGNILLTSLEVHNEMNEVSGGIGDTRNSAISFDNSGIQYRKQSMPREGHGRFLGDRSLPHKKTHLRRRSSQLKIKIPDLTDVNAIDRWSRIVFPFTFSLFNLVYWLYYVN
# T1 sequence (O14764 25-452): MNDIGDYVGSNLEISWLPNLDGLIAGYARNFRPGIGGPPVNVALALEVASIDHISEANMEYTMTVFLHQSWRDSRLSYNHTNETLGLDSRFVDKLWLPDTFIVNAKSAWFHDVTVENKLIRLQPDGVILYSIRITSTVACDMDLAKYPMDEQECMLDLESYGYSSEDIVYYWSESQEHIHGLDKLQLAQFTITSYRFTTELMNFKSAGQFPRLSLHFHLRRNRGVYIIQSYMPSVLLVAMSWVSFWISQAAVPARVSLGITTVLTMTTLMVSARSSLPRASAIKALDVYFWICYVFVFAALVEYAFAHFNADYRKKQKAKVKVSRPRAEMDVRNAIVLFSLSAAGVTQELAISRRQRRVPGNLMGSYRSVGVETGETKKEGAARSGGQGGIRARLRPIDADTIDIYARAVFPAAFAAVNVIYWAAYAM
# Description: Cellular electrophysiology was used to measure the pharmacological properties of ALLO, ganaxolone and SGE-516 in heterologous cell systems. Compounds were tested for their ability to affect GABA mediated currents at a submaximal agonist dose (GABA EC20=2 μM).
# LTK cells were stably transfected with the α1β2γ2 subunits of the GABA receptor and CHO cells are transiently transfected with the α4β3γ subunits via the Lipofecatamine method. Cells were passaged at a confluence of about 50-80% and then seeded onto 35 mm sterile culture dishes containing 2 ml culture complete medium without antibiotics or antimycotics. Cells were cultivated at a density that enabled the recording of single cells without visible connections to other cells.
# Whole-cell currents were measured with HEKA EPC-10 amplifiers using PatchMaster software. Bath solution for all experiments contained (in mM): NaCl 137, KCl 4, CaCl2 1.8, MgCl2 1, HEPES 10, D-Glucose 10, pH 7.4 with NaOH. Intracellular (pipette) solution contained (in mM): KCl 130, MgCl2 1, Mg-ATP 5, HEPES 10, EGTA 5, pH 7.2 with KOH. During experiments, cells and solutions were maintained at room temperature (19° C.-30° C.). For manual patchclamp recordings, cell culture dishes were placed on the dish holder of the microscope and continuously perfused (1 ml/min) with bath solution. After formation of a Gigaohm seal between the patch electrode and the cell (pipette resistance range: 2.5 MΩ-6.0MΩ; seal resistance range: >1 GΩ) the cell membrane across the pipette tip was ruptured to assure electrical access to the cell interior (whole-cell patch configuration).
# Cells were voltage-clamped at a holding potential of −80 mV. GABAA receptors were activated by 2 μM GABA and compounds were sequentially applied at increasing concentrations for 30 s prior to a 2 s application of GABA. GABA and compounds were applied to cells via the Dynaflow perfusion system (Cellectricon, Sweden). Test compounds were dissolved in DMSO to form 10 mM stock solution and serially diluted to 0.01, 0.1, 1, and 10 μM in bath solution. There was no effect on GABA currents when DMSO was applied to cells at its maximal concentration in solution (0.1%). All concentrations of test compound were tested on each cell. The relative percentage potentiation was defined as the peak amplitude in response to GABA EC20 in the presence of test compound divided by the peak amplitude in response to GABA EC20 alone, multiplied by 100.
# ALLO and ganaxolone are known PAMs of both synaptic and extrasynaptic GABAAR-mediated currents. The ability of candidate compound SGE-516 to act as a PAM was compared to ALLO and ganaxolone using the whole-cell recordings of recombinant human GABAA receptors expressed in mammalian cells. The α1β2γ2 or α4β3δ subunit combinations were chosen as representatives of typical synaptic and extrasynaptic GABAA receptors respectively. Similar to previous reports (Botella et al., 2015), ALLO, ganaxolone and SGE-516 allosterically potentiated currents induced by EC20 concentration of GABA in a concentration-dependent manner in both synaptic- and extrasynaptic-type GABAARs.
smiles,measurement,setting,value
C=C[C@]12CCC(=O)C=C1CCC1C2CC[C@@]2(C)C1CC[C@@H]2C(C)=O (stereo partly drawn) [ORG OD 02-0],"amplitude and density of GABAergic tonic current, varying doses",[1],dosage-dependent effect
same,S408/9 phosphorylation in hippocampal slices (FIG. 18),[2],regulated
same,GABA-evoked currents recorded from GT1-7 cells,GT1-7 cells [3],sustained increases
same,acute modulation of function of GABAARs composed of α4β3 subunits,[4],did not acutely modulate
"CC(=O)[C@H]1CC[C@H]2[C@@H]3CCC4=CC(=O)CC[C@]4(C)[C@H]3CC[C@]12C [P4, Progesterone]","amplitude and density of GABAergic tonic current, varying doses",[1],dosage-dependent effect
same,S408/9 phosphorylation in hippocampal slices (FIG. 18),[2],regulated
same,S408/9 phosphorylation in GT1-7 cells,GT1-7 cells [5],increase
"C[C@]12CC[C@@H](O)C[C@H]1CC[C@@H]1[C@@H]2CC[C@]2(C)[C@@H](C(=O)CO)CC[C@@H]12 [THDOC, Tetrahydrodeoxycorticosterone]",sustained effect on GABAergic tonic current,[6],long lasting increase
CN1C(=O)CN=C(c2ccccc2)c2cc(Cl)ccc21 [diazepam],effect on GABA evoked currents in α4β3δ receptors,α4β3δ GABAA receptors,did not alter
